According to US10905764B2, “Hydrated food” (Taiyokagaku Co., Ltd., priority 2005, dated 2021):

Tests used:
[1] = Dissolution / water solubility; conditions: in the hydrated food
mice = format: in vivo; conditions: oral administration of theanine by 5 g/kg
Excerpt: Theanine used in the invention has a high security. […] Furthermore, theanine is known as a principal component of deliciousness of tea and used as a food additive for use as gustatory. An amount of theanine to be added is not limited under the Food Sanitation Law.

For `CCNC(=O)CC[C@H](N)C(=O)O` [theanine, L-theanine], the “upper limit of dissolution” value [1] was 250 mg/mL and the “mortality in acute toxicity test” value (mice) was “no mice died”.
